Experimental data: US20100210697A1, “PHARMACEUTICAL COMPOSITION FOR TREATMENT OF CATARACT” (R-TECH UENO, LTD., priority 2007, published 2010)

Key:
[1] = system: rats given powder feed with 30% of galactose; assay: Cataract onset in rats fed 30% galactose feed, repeated oral administration; format: in vivo, Rats (Crj: Wistar)
From the text: Rats (Crj: Wistar, male, 3-week-old) were purchased and, from the next day (Day 0), a mixture of a powder feed (CRF-1, Oriental Yeast Co., ltd.) and 30% of galactose (special grade, Wako Pure Chemical Industries, Ltd., Lot# 075-00035) was freely given. From Day 0, test substance 1 was repetitively administered orally.
dissolution liquid: 0.5% methylcellulose solution test substance 1: N-{4-[2-(4-hydrazinocarbonylmethylphenyl)ethyl]-1,3-thiazol-2-yl}acetamide (compound described in Production Example)

[2] = system: STZ induced diabetic rat; assay: Cataract onset in STZ induced diabetic rats, repeated instillation into both eyes; format: in vivo, Rats (Crj: Wistar); conditions: for number of onset eyes / onset of cataract (conclusion in words): Day 46; for number of onset eyes / onset rate (Day 46): instilled 10 μL per eye, 3 times a day, test substance 1 0.01 wt %, test substance 2 2 wt %; for number of onset eyes: onset eyes/total eyes; for onset of cataract (conclusion in words): STZ induced diabetic rats, instillation; for onset rate (Day 46): saline pathology group 100%
Procedure: Rats (Crj: Wistar, male, 5-week-old) were purchased, grouped after acclimation for 6 days, and fasted for 20 hr.
After the fasting, Streptosotocin (hereinafter STZ, 50 mg/kg (2 mL/kg)) was administered to the tail vein.
After 24 hr from the STZ administration, the blood glucose level was measured, and the rats with blood glucose level of not less than 250 mg/dL were considered as STZ induced diabetic rat (measurement tool: ACCU-CHEK Aviva, Roche Diagnostics K.K.) (group 2-group 4).
From the next day of the blood glucose level measurement, saline, test substance 1 and test substance 2 were repetitively instilled to groups 2-4 into both eyes (10 μL for each eye) 3 times a day (9:00, 13:00, 17:00). The cataract suppression rate of the test substance at the time point when the onset of the pathology model group 2 reached 100% (Day 46) was determined. Saline was repetitively instilled in the same manner to the group free of streptosotocin administration (group 1).
In addition, the day when the nuclear part of the crystalline lens became obviously opaque was taken as the cataract onset day.
cataract onset rate: (number of cataract onset eyes/total number of eyes ×100)

Compound	number of onset eyes (Day 20) ([1]; Day 20, oral, 0.5 wt %, 2 mL/kg once per day, vehicle group 8/12 eyes)	onset of cataract (conclusion in words) ([1]; galactose-fed rats, oral administration, 20 days)	number of onset eyes [2]	onset of cataract (conclusion in words) [2]	onset rate (Day 46) [2] [%]
CC(=O)Nc1nc(CCc2ccc(CC(=O)NN)cc2)cs1 [test substance 1, N-{4-[2-(4-hydrazinocarbonylmethylphenyl)ethyl]-1,3-thiazol-2-yl}acetamide]	3/12 eyes	suppresses the onset of cataract	2/8	suppress the onset of cataract	25
CC(=O)Nc1nc(CCc2ccc(CCNC(=N)N)cc2)cs1 [test substance 2, N-(4-{2-[4-(2-{[amino(imino)methyl]amino}ethyl)phenyl]ethyl}-1,3-thiazol-2-yl)acetamide]			2/10	suppress the onset of cataract	20
